According to US4268665A, “Derivatives of antibiotic tylosin” (Toyo Jozo Kabushiki Kaisha, priority 1978, dated 1981):
In brackets after ≈: the same amount, converted by molar mass. Read-outs that look alike come from different tables or passages of the source.

Tests used:
Format in all cases: cell-based
Staph.aureus ATCC6538P = experiment: MIC on Staph.aureus ATCC6538P; conditions: Staphylococcus aureus
From the text: (§1) In Table I hereinafter is shown the minimum inhibitory concentrations (MIC) on microorganisms of the products of the present invention. As a result, the compound [1] is seen to be effective against macrolide-resistant A group microorganisms.

Staph.aureus MS353 = experiment: MIC on Staph.aureus MS353; conditions: Staphylococcus aureus
From the text: as §1

Staph.aureus MS353A0 = experiment: MIC on Staph.aureus MS353A0 (macrolide-resistant A group); conditions: Staphylococcus aureus; Staph.aureus MS353A0, erythromycin, oleandomycin, 16-membered macrolide resistant clinical isolate
From the text: as §1
(§2) *Erythromycin, oleandomycin, 16membered macrolide resistant strains of
(§3) clinical isolates (macrolideresistant Agroup strains)

Staph.aureus 0116 = experiment: MIC on Staph.aureus 0116 (macrolide-resistant A group); conditions: Staphylococcus aureus
From the text: as §1, §2, §3

Staph.aureus 0119 = experiment: MIC on Staph.aureus 0119 (macrolide-resistant A group); conditions: Staphylococcus aureus
From the text: as §1, §2, §3

Staph.aureus 0127 = experiment: MIC on Staph.aureus 0127 (macrolide-resistant A group); conditions: Staphylococcus aureus; Staph.aureus 0127, erythromycin, oleandomycin, 16-membered macrolide resistant clinical isolate
From the text: as §1, §2, §3

Strept.pyogenes N.Y.5 = experiment: MIC on Strept.pyogenes N.Y.5; conditions: Streptococcus pyogenes
From the text: as §1

Strept.pyogenes 1022 = experiment: MIC on Strept.pyogenes 1022 (macrolide-resistant A group); conditions: Streptococcus pyogenes; Strept.pyogenes 1022, erythromycin, oleandomycin, 16-membered macrolide resistant clinical isolate
From the text: as §1, §2, §3

[1] = Staph.aureus 0119, erythromycin, oleandomycin, 16-membered macrolide resistant clinical isolate, read-out: MIC
[2] = Staph.aureus 0116, erythromycin, oleandomycin, 16-membered macrolide resistant clinical isolate, read-out: MIC

| Structure (SMILES) | MIC (Staph.aureus ATCC6538P) | MIC (Staph.aureus MS353) | MIC (Staph.aureus MS353A0) | MIC (Staph.aureus 0116; 0116) | MIC (Staph.aureus 0119; [1]) | MIC (Staph.aureus 0127) | MIC (Strept.pyogenes N.Y.5) | MIC (Strept.pyogenes 1022) | MIC (Staph.aureus 0116; [2]) | MIC (Staph.aureus 0119; 0119) |
| --- | --- | --- | --- | --- | --- | --- | --- | --- | --- | --- |
| CCC1OC(=O)CC(O)C(C)C(OC2OC(C)C(OC3CC(C)(OC(C)=O)C(OC(C)=O)C(C)O3)C(N(C)C)C2O)C(CC=O)CC(C)C(=O)C=CC(C)=CC1COC1OC(C)C(O)C(OC)C1OC (stereo not drawn) [3"-Ac, 4"-Ac, 3", 4"-diacetyltylosin] | 0.8 µg/mL (≈ 0.8 µM) | 1.6 µg/mL (≈ 1.6 µM) | 12.5 µg/mL (≈ 12.5 µM) | 12.5 µg/mL (≈ 12.5 µM) | 50 µg/mL (≈ 50 µM) | 100 µg/mL (≈ 100 µM) | 0.2 µg/mL (≈ 0.2 µM) | 6.3 µg/mL (≈ 6.3 µM) |  |  |
| CCCC(=O)OC1C(C)OC(OC2C(C)OC(OC3C(CC=O)CC(C)C(=O)C=CC(C)=CC(COC4OC(C)C(O)C(OC)C4OC)C(CC)OC(=O)CC(O)C3C)C(O)C2N(C)C)CC1(C)OC(C)=O (stereo not drawn) [3"-Ac, 4"-Bu, 3"-acetyl-4"-butyryltylosin] | 1.6 µg/mL (≈ 1.56 µM) | 3.1 µg/mL (≈ 3.01 µM) | 12.5 µg/mL (≈ 12.2 µM) |  |  | 25 µg/mL (≈ 24.3 µM) | 0.2 µg/mL (≈ 0.195 µM) | 1.6 µg/mL (≈ 1.56 µM) | 6.3 µg/mL (≈ 6.13 µM) | 12.5 µg/mL (≈ 12.2 µM) |
| CCCCCC(=O)OC1C(C)OC(OC2C(C)OC(OC3C(CC=O)CC(C)C(=O)C=CC(C)=CC(COC4OC(C)C(O)C(OC)C4OC)C(CC)OC(=O)CC(O)C3C)C(O)C2N(C)C)CC1(C)OC(C)=O (stereo not drawn) [3"-Ac, 4"-Hex, 3"-acetyl-4"-hexanoyltylosin] | 1.6 µg/mL (≈ 1.51 µM) | 3.1 µg/mL (≈ 2.93 µM) | 12.5 µg/mL (≈ 11.8 µM) |  |  | 25 µg/mL (≈ 23.7 µM) | 0.4 µg/mL (≈ 0.379 µM) | 1.6 µg/mL (≈ 1.51 µM) | 6.3 µg/mL (≈ 5.96 µM) | 12.5 µg/mL (≈ 11.8 µM) |
| CCC1OC(=O)CC(O)C(C)C(OC2OC(C)C(OC3CC(C)(OC(C)=O)C(OC(=O)CC(C)C)C(C)O3)C(N(C)C)C2O)C(CC=O)CC(C)C(=O)C=CC(C)=CC1COC1OC(C)C(O)C(OC)C1OC (stereo not drawn) [3"-Ac, 4"-Iva, 3"-acetyl-4"-isovaleryltylosin] | 1.6 µg/mL (≈ 1.54 µM) | 3.1 µg/mL (≈ 2.97 µM) | 6.3 µg/mL (≈ 6.04 µM) |  | 6.3 µg/mL (≈ 6.04 µM) | 12.5 µg/mL (≈ 12 µM) | 0.2 µg/mL (≈ 0.192 µM) | 1.6 µg/mL (≈ 1.54 µM) | 6.3 µg/mL (≈ 6.04 µM) |  |
| CCC(=O)OC1C(C)OC(OC2C(C)OC(OC3C(CC=O)CC(C)C(=O)C=CC(C)=CC(COC4OC(C)C(O)C(OC)C4OC)C(CC)OC(=O)CC(O)C3C)C(O)C2N(C)C)CC1(C)OC(C)=O (stereo not drawn) [3"-Ac, 4"-Pro, 3"-acetyl-4"-propionyltylosin] | 1.6 µg/mL (≈ 1.58 µM) | 3.1 µg/mL (≈ 3.06 µM) | 25 µg/mL (≈ 24.6 µM) |  | 12.5 µg/mL (≈ 12.3 µM) | 25 µg/mL (≈ 24.6 µM) | 0.2 µg/mL (≈ 0.197 µM) | 1.6 µg/mL (≈ 1.58 µM) | 6.3 µg/mL (≈ 6.21 µM) |  |
| CCCC(=O)OC1C(C)OC(OC2C(C)OC(OC3C(CC=O)CC(C)C(=O)C=CC(C)=CC(COC4OC(C)C(O)C(OC)C4OC)C(CC)OC(=O)CC(O)C3C)C(O)C2N(C)C)CC1(C)OC(=O)CCC (stereo not drawn) [3"-Bu, 4"-Bu, 3", 4"-dibutyryltylosin] | 1.6 µg/mL (≈ 1.51 µM) | 6.1 µg/mL (≈ 5.77 µM) | 12.5 µg/mL (≈ 11.8 µM) |  |  | 25 µg/mL (≈ 23.7 µM) | 0.2 µg/mL (≈ 0.189 µM) | 1.6 µg/mL (≈ 1.51 µM) | 6.3 µg/mL (≈ 5.96 µM) | 12.5 µg/mL (≈ 11.8 µM) |
| CCCC(=O)OC1C(C)OC(OC2C(C)OC(OC3C(CC=O)CC(C)C(=O)C=CC(C)=CC(COC4OC(C)C(O)C(OC)C4OC)C(CC)OC(=O)CC(O)C3C)C(O)C2N(C)C)CC1(C)O (stereo not drawn) [3"-H, 4"-Bu, reference compound] | 0.8 µg/mL (≈ 0.811 µM) | 3.1 µg/mL (≈ 3.14 µM) | 50 µg/mL (≈ 50.7 µM) |  | 50 µg/mL (≈ 50.7 µM) | 100 µg/mL (≈ 101 µM) | 0.2 µg/mL (≈ 0.203 µM) | 12.5 µg/mL (≈ 12.7 µM) | 25 µg/mL (≈ 25.3 µM) |  |
| CC[C@H]1OC(=O)C[C@@H](O)[C@H](C)[C@@H](O[C@@H]2O[C@H](C)[C@@H](O[C@H]3C[C@@](C)(O)[C@@H](O)[C@H](C)O3)[C@H](N(C)C)[C@H]2O)[C@@H](CC=O)C[C@@H](C)C(=O)/C=C/C(C)=C/[C@@H]1CO[C@@H]1O[C@H](C)[C@@H](O)[C@@H](OC)[C@H]1OC [3"-H, 4"-H, tylosin] | 0.8 µg/mL (≈ 0.873 µM) | 1.6 µg/mL (≈ 1.75 µM) | > 100 µg/mL |  | > 100 µg/mL | > 100 µg/mL | 0.2 µg/mL (≈ 0.218 µM) | > 100 µg/mL | > 100 µg/mL |  |
| CCC1OC(=O)CC(O)C(C)C(OC2OC(C)C(OC3CC(C)(OC(=O)CC(C)C)C(OC(C)=O)C(C)O3)C(N(C)C)C2O)C(CC=O)CC(C)C(=O)C=CC(C)=CC1COC1OC(C)C(O)C(OC)C1OC (stereo not drawn) [3"-Iva, 4"-Ac, 4"-acetyl-3"-isovaleryltylosin] | 0.8 µg/mL (≈ 0.768 µM) | 1.6 µg/mL (≈ 1.54 µM) | 6.3 µg/mL (≈ 6.04 µM) |  | 25 µg/mL (≈ 24 µM) | > 100 µg/mL | 0.2 µg/mL (≈ 0.192 µM) | 6.3 µg/mL (≈ 6.04 µM) | 6.3 µg/mL (≈ 6.04 µM) |  |
| CCCC(=O)OC1C(C)OC(OC2C(C)OC(OC3C(CC=O)CC(C)C(=O)C=CC(C)=CC(COC4OC(C)C(O)C(OC)C4OC)C(CC)OC(=O)CC(O)C3C)C(O)C2N(C)C)CC1(C)OC(=O)CC (stereo not drawn) [3"-Pro, 4"-Bu, 4"-butyryl-3"-propionyltylosin] | 1.6 µg/mL (≈ 1.54 µM) | 3.1 µg/mL (≈ 2.97 µM) | 12.5 µg/mL (≈ 12 µM) |  |  | 25 µg/mL (≈ 24 µM) | 0.2 µg/mL (≈ 0.192 µM) | 1.6 µg/mL (≈ 1.54 µM) | 6.3 µg/mL (≈ 6.04 µM) | 12.5 µg/mL (≈ 12 µM) |
| CCC(=O)OC1(C)CC(OC2C(C)OC(OC3C(CC=O)CC(C)C(=O)C=CC(C)=CC(COC4OC(C)C(O)C(OC)C4OC)C(CC)OC(=O)CC(O)C3C)C(O)C2N(C)C)OC(C)C1OC(=O)CC(C)C (stereo not drawn) [3"-Pro, 4"-Iva, 4"-isovaleryl-3"-propionyltylosin] | 1.6 µg/mL (≈ 1.51 µM) | 3.1 µg/mL (≈ 2.93 µM) | 6.3 µg/mL (≈ 5.96 µM) |  | 6.3 µg/mL (≈ 5.96 µM) | 12.5 µg/mL (≈ 11.8 µM) | 0.4 µg/mL (≈ 0.379 µM) | 0.8 µg/mL (≈ 0.757 µM) | 6.3 µg/mL (≈ 5.96 µM) |  |
| CCC(=O)OC1C(C)OC(OC2C(C)OC(OC3C(CC=O)CC(C)C(=O)C=CC(C)=CC(COC4OC(C)C(O)C(OC)C4OC)C(CC)OC(=O)CC(O)C3C)C(O)C2N(C)C)CC1(C)OC(=O)CC (stereo not drawn) [3"-Pro, 4"-Pro, 3", 4"-dipropionyltylosin] | 1.6 µg/mL (≈ 1.56 µM) | 3.1 µg/mL (≈ 3.01 µM) | 25 µg/mL (≈ 24.3 µM) |  | 12.5 µg/mL (≈ 12.2 µM) | 25 µg/mL (≈ 24.3 µM) | 0.2 µg/mL (≈ 0.195 µM) | 1.6 µg/mL (≈ 1.56 µM) | 6.3 µg/mL (≈ 6.13 µM) |  |
